Where “and” joins values, the source holds several entries; their conditions need not be identical. Equal values may be shown once. Inconclusive results and toxic doses are left out. Cut-off read from the data, not from the text of the source: active = T/C of 150% or more; inactive = T/C below 125%.
System: L1210 leukemia ip in BDF1 mice, survival T/C
Experiment: NCI In Vivo Anticancer Drug Screen. Data for tumor model L1210 Leukemia (intraperitoneal) in B6D2F1 (BDF1) mice
Settings: endpoint: mean survival time, higher = longer survival
Outline: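 Mice bearing the transplanted tumor received compound or vehicle. Survival of the treated group was divided by that of the vehicle-treated control group to give the ratio.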

[1] = dose: 100.0 mg/kg/injection, schedule: Q01DX001 (ip), vehicle: Klucel (hydroxypropylcellulose) (HPC)
[2] = dose: 200.0 mg/kg/injection, schedule: Q01DX001 (ip), vehicle: Klucel (hydroxypropylcellulose) (HPC)
[3] = dose: 400.0 mg/kg/injection, schedule: Q01DX001 (ip), vehicle: Klucel (hydroxypropylcellulose) (HPC)
[4] = dose: 400.0 mg/kg/injection, schedule: Q01DX001 (ip), vehicle: other
[5] = dose: 25.0 mg/kg/injection, schedule: Q04DX002 (ip), vehicle: saline
[6] = dose: 50.0 mg/kg/injection, schedule: Q04DX002 (ip), vehicle: saline
[7] = dose: 100.0 mg/kg/injection, schedule: Q04DX002 (ip), vehicle: saline
[8] = dose: 150.0 mg/kg/injection, schedule: Q01DX001 (ip), vehicle: saline
[9] = dose: 100.0 mg/kg/injection, schedule: Q04DX003 (ip), vehicle: Klucel (hydroxypropylcellulose) (HPC)
[10] = dose: 200.0 mg/kg/injection, schedule: Q04DX003 (ip), vehicle: Klucel (hydroxypropylcellulose) (HPC)
[11] = dose: 400.0 mg/kg/injection, schedule: Q04DX003 (ip), vehicle: Klucel (hydroxypropylcellulose) (HPC)
[12] = dose: 100.0 mg/kg/injection, schedule: Q01DX009 (ip), vehicle: saline
[13] = dose: 200.0 mg/kg/injection, schedule: Q01DX009 (ip), vehicle: saline
[14] = dose: 400.0 mg/kg/injection, schedule: Q01DX009 (ip), vehicle: saline
[15] = dose: 50.0 mg/kg/injection, schedule: Q01DX009 (ip), vehicle: saline
[16] = dose: 100.0 mg/kg/injection, schedule: Q04DX003 (ip), vehicle: saline
[17] = dose: 200.0 mg/kg/injection, schedule: Q04DX003 (ip), vehicle: saline
[18] = dose: 25.0 mg/kg/injection, schedule: Q04DX003 (ip), vehicle: Klucel (hydroxypropylcellulose) (HPC)
[19] = dose: 50.0 mg/kg/injection, schedule: Q04DX003 (ip), vehicle: Klucel (hydroxypropylcellulose) (HPC)
[20] = dose: 100.0 mg/kg/injection, schedule: Q01DX001 (ip), vehicle: saline
[21] = dose: 100.0 mg/kg/injection, schedule: Q04DX003 (ip), vehicle: saline with Tween-80
[22] = dose: 200.0 mg/kg/injection, schedule: Q04DX003 (ip), vehicle: saline with Tween-80

Measured: T/C

Cc1cc(C)c(N(CC(=O)O)S(=O)(=O)c2ccccc2)c(C)c1F
inactive: [1] 100 % of control | [2] 94 % of control | [3] 89 % of control

COc1ccc(OC)c2c1C1C=CC2C1
inactive: dose: 177.0 mg/kg/injection, schedule: Q01DX001 (ip), vehicle: other 98 % of control | dose: 266.0 mg/kg/injection, schedule: Q01DX001 (ip), vehicle: other 94 % of control | [4] 89 % of control | dose: 600.0 mg/kg/injection, schedule: Q01DX001 (ip), vehicle: other 96 % of control

NCCCNCC1C(c2ccccc2)C1c1ccccc1 (stereo not drawn)
inactive: dose: 25.0 mg/kg/injection, schedule: Q04DX002 (ip), vehicle: Klucel (hydroxypropylcellulose) (HPC) 100 % of control | dose: 50.0 mg/kg/injection, schedule: Q04DX002 (ip), vehicle: Klucel (hydroxypropylcellulose) (HPC) 114 % of control

CC(OC1OC(CO)C(OC2OC(CO)C(O)C(O)C2O)C(O)C1O)C1CC(O)C2C3CCC4=CC(=O)CCC4(C)C3CCC12C (stereo not drawn)
inactive: [5] 104 % of control | [6] 107 % of control | [7] 96 % of control

C=CCC1(C(C)CCC)C(=O)NC(=S)NC1=O (stereo not drawn)
inactive: dose: 75.0 mg/kg/injection, schedule: Q01DX001 (ip), vehicle: saline 100 % of control | [8] 98 % of control | dose: 300.0 mg/kg/injection, schedule: Q01DX001 (ip), vehicle: saline 90 % of control

CC(=O)Nc1ccc(S(=O)(=O)Nc2ccc(C(=O)O)cc2)cc1
inactive: [9] 100 % of control | [10] 87 % of control | [11] 92 % of control

OCC1(O)OCC(O)C(O)C1O (stereo not drawn)
inactive: [12] 89 % of control | [13] 94 % of control | [14] 90 % of control | dose: 800.0 mg/kg/injection, schedule: Q01DX009 (ip), vehicle: saline 90 % of control

C/C(=N\N)C(=O)c1ccccc1
inactive: [1] 103 % of control | [9] 98 % of control | [2] 93 % of control | [10] 94 % of control | [3] 101 % of control | [11] 96 % of control

COC(=O)c1ccc(N=Nc2ncc(CC(NC(C)=O)C(=O)OC)[nH]2)cc1 (stereo not drawn)
inactive: dose: 100.0 mg/kg/injection, schedule: Q01DX001 (ip), vehicle: saline with Tween-80 93 % of control | dose: 200.0 mg/kg/injection, schedule: Q01DX001 (ip), vehicle: saline with Tween-80 96 % of control | dose: 400.0 mg/kg/injection, schedule: Q01DX001 (ip), vehicle: saline with Tween-80 100 % of control

OC(c1cccc2ccccc12)c1c2ccccc2cc2ccccc12 (stereo not drawn)
inactive: [15] 96 % of control | dose: 100.0 mg/kg/injection, schedule: Q01DX005 (ip), vehicle: saline 98 % of control | [12] 102 % of control and 104 % of control | [7] 93 % of control | dose: 200.0 mg/kg/injection, schedule: Q01DX005 (ip), vehicle: saline 103 % of control | [13] 100 % of control | dose: 200.0 mg/kg/injection, schedule: Q04DX002 (ip), vehicle: saline 97 % of control | dose: 400.0 mg/kg/injection, schedule: Q01DX005 (ip), vehicle: saline 106 % of control | [14] 108 % of control and 91 % of control | dose: 400.0 mg/kg/injection, schedule: Q04DX002 (ip), vehicle: saline 97 % of control

CC1CCOC(C)O1 (stereo not drawn)
inactive: [12] 103 % of control | [16] 100 % of control | [13] 91 % of control | [17] 94 % of control | [14] 96 % of control | dose: 400.0 mg/kg/injection, schedule: Q04DX003 (ip), vehicle: saline 94 % of control

CCc1nccc(=O)[nH]1
inactive: [15] 102 % of control and 101 % of control | [12] 88 % of control and 110 % of control | [16] 94 % of control and 110 % of control | [13] 100 % of control and 103 % of control | [17] 89 % of control and 104 % of control

CC(=O)Oc1cccc(/C=C2/N=C(C)OC2=O)c1
inactive: [18] 108 % of control | [19] 105 % of control | [20] 92 % of control | [9] 97 % of control | dose: 200.0 mg/kg/injection, schedule: Q01DX001 (ip), vehicle: saline 92 % of control | dose: 400.0 mg/kg/injection, schedule: Q01DX001 (ip), vehicle: saline 90 % of control

ClCC1Oc2ccccc2O1
inactive: dose: 100.0 mg/kg/injection, schedule: Q01DX001 (ip), vehicle: other 101 % of control | [4] 97 % of control

CCCc1nc2c(c(=O)n(C)c(=O)n2C)n1C
inactive: dose: 45.0 mg/kg/injection, schedule: Q01DX001 (ip), vehicle: saline 97 % of control and 98 % of control | dose: 67.0 mg/kg/injection, schedule: Q01DX001 (ip), vehicle: saline 97 % of control and 103 % of control | [20] 94 % of control and 101 % of control | [8] 98 % of control and 101 % of control

CC12c3ccccc3C(c3ccccc31)C1C(=O)OC(=O)C12 (stereo not drawn)
inactive: dose: 100.0 mg/kg/injection, schedule: Q01DX001 (ip), vehicle: carboxymethylcellulose (CMC) 98 % of control | [21] 90 % of control | dose: 200.0 mg/kg/injection, schedule: Q01DX001 (ip), vehicle: carboxymethylcellulose (CMC) 96 % of control | [22] 92 % of control | dose: 400.0 mg/kg/injection, schedule: Q01DX001 (ip), vehicle: carboxymethylcellulose (CMC) 93 % of control

CCOC1OCN(C(C)C)CC1(C)C (stereo not drawn)
inactive: dose: 75.0 mg/kg/injection, schedule: Q01DX009 (ip), vehicle: saline 110 % of control | dose: 150.0 mg/kg/injection, schedule: Q01DX009 (ip), vehicle: saline 119 % of control

Cc1ccccc1NC(=O)Nc1ccc(S(N)(=O)=O)cc1
inactive: dose: 100.0 mg/kg/injection, schedule: Q01DX009 (ip), vehicle: Klucel (hydroxypropylcellulose) (HPC) 104 % of control | dose: 100.0 mg/kg/injection, schedule: Q04DX002 (ip), vehicle: Klucel (hydroxypropylcellulose) (HPC) 86 % of control | dose: 200.0 mg/kg/injection, schedule: Q01DX009 (ip), vehicle: Klucel (hydroxypropylcellulose) (HPC) 101 % of control | dose: 200.0 mg/kg/injection, schedule: Q04DX002 (ip), vehicle: Klucel (hydroxypropylcellulose) (HPC) 93 % of control | dose: 400.0 mg/kg/injection, schedule: Q01DX009 (ip), vehicle: Klucel (hydroxypropylcellulose) (HPC) 112 % of control | dose: 400.0 mg/kg/injection, schedule: Q04DX002 (ip), vehicle: Klucel (hydroxypropylcellulose) (HPC) 86 % of control

CC1CN1P(=O)(N1CC1C)N1CC1C.CC1CN1P(=O)(N1CC1C)N1CC1C.CC1CN1P(=O)(N1CC1C)N1CC1C.CC1CN1P(=O)(N1CC1C)N1CC1C.[Cu+2].[O-][Cl+3]([O-])([O-])O (stereo not drawn)
inactive: dose: 25.0 mg/kg/injection, schedule: Q01DX009 (ip), vehicle: saline 111 % of control | [5] 108 % of control | [15] 119 % of control | [6] 102 % of control | [12] 92 % of control | [7] 108 % of control and 119 % of control

c1ccc2c(c1)ccc1ccccc12
inactive: [21] 100 % of control | [22] 92 % of control | dose: 400.0 mg/kg/injection, schedule: Q04DX003 (ip), vehicle: saline with Tween-80 92 % of control

Cc1ccc(C2OCC(CCl)O2)cc1 (stereo not drawn)
inactive: dose: 222.0 mg/kg/injection, schedule: Q01DX Z (ip), vehicle: methylcellulose (MC) 108 % of control | dose: 333.0 mg/kg/injection, schedule: Q01DX Z (ip), vehicle: methylcellulose (MC) 96 % of control | dose: 500.0 mg/kg/injection, schedule: Q01DX Z (ip), vehicle: methylcellulose (MC) 102 % of control

CCCNc1ccc(C2=NCCCN2)cc1
inactive: [20] 102 % of control

O=C1C(Br)=CC(=NBr)C=C1Br
inactive: [18] 101 % of control | [19] 101 % of control | [9] 97 % of control

Source: PubChem BioAssay AID248 (DTP/NCI, 2004)
